Drawing on patent publication US8071581B2, “Triazolopyridazine protein kinase modulators” (SGX Pharmaceuticals, Inc., priority 2006, dated 2011), this text covers IC50 for 27 molecules.

The target of this assay is MET kinase (c-MET), kinase domain of human Met (Homo sapiens, UniProt P08581). Nature of the assay: MET luminescence-based enzyme assay (Kinase-Glo). For orientation: Kinase-Glo reads ATP consumption through a luciferase reaction.
Chain of MET kinase (c-MET), kinase domain of human Met (P08581 1078-1345 limits assumed): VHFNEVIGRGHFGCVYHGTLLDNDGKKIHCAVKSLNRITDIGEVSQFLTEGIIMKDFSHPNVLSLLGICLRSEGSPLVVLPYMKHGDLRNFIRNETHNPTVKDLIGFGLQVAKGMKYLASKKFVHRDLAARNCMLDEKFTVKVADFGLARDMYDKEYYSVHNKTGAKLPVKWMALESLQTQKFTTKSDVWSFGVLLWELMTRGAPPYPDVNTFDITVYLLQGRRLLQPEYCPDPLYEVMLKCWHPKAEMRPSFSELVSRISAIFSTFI

With `CC(C)(c1ccc2ncccc2c1)c1nnc2ccc(-c3ccccc3)nn12` [compound 18], the IC50 (usually the concentration at which inhibition is half-maximal) lay in the range of 10000 to 50000 nM. `Cc1ccc2cc(Cc3nnc4ccc(-c5ccccc5)nn34)ccc2n1` [compound 38, 2-Methyl-6-(6-phenyl-[1,2,4]triazolo[4,3-b]pyridazin-3-ylmethyl)-quinoline] yielded an IC50 of 1000 to 10000 nM. `c1ccc(-c2ccc3nnc(CCc4ccc5ncccc5c4)n3n2)cc1` [compound 39] gave an IC50 of 10000 to 50000 nM.

The molecule `c1ccc(-c2ccc3nnc([C@H]4C[C@@H]4c4ccc5ncccc5c4)n3n2)cc1` [compound 40] registered a concentration for half-maximal inhibition (IC50) of 10000 to 50000 nM. For `Clc1nc2ccc(Cc3nnc4ccc(-c5ccccc5)nn34)cc2s1` [compound 44] the value was 1000 to 10000 nM.

`Cc1cc(Cc2nnc3ccc(-c4cnn(C)c4)nn23)cc2cccnc12` [compound 91] displayed an IC50 of 1000 to 10000 nM. For `Cn1cc(-c2ccc3nnc(Cc4cc(F)c5ncccc5c4)n3n2)cn1` [compound 92] the value was 1000 to 10000 nM; for `Fc1cccc(-c2ccc3nnc(Cc4ccc5ncsc5c4)n3n2)c1` [compound 93], 1000 to 10000 nM. For `Fc1cc(F)cc(-c2ccc3nnc(Cc4ccc5ncsc5c4)n3n2)c1` [compound 97] the value was 100 to 1000 nM. For `C[C@H](c1ccc2ncsc2c1)c1nnc2ccc(-c3cccc(C#N)c3)nn12` [compound 104, I-3-[3-(1-Benzothiazol-6-yl-ethyl)-[1,2,4]triazolo[4,3-b]pyridazin-6-yl]-benzonitrile] the value was 100 to 1000 nM; for `Cc1ccc2nnc(Cc3ccc4ncccc4c3)n2n1` [compound 105], 100 to 1000 nM; for `Cc1ccc2nnc(Cc3ccc4ncc(Br)cc4c3)n2n1` [compound 106], 100 to 1000 nM.

For the molecule `Cc1ccc2nnc(Cc3ccc4ncc(C#N)cc4c3)n2n1` [compound 110, 6-(6-Methyl-[1,2,4]triazolo[4,3-b]pyridazin-3-ylmethyl)-quinoline-3-carbonitrile], the IC50 is 1000 to 10000 nM.

Molecule `CCc1ccc2nnc(Cc3c(F)cc4ncc(Br)cc4c3F)n2n1` [compound 115] returned an IC50 of 100 to 1000 nM. The molecule `CCc1cnc2ccc(Cc3nnc4ccc(C)nn34)cc2c1` [compound 116, 3-Ethyl-6-(6-methyl-[1,2,4]triazolo[4,3-b]pyridazin-3-ylmethyl)-quinoline] came in with an IC50 of under 100 nM. The molecule `Cc1ccc2nnc(C(C)c3ccc4ncc(Br)cc4c3)n2n1` (stereo not drawn) [compound 119, 3-Bromo-6-[1-(6-methyl-[1,2,4]triazolo[4,3-b]pyridazin-3-yl)-ethyl]-quinoline] came in with an IC50 of under 100 nM. For `CCc1ccc2nnc(Cc3ccc4ncc(Br)cc4c3F)n2n1` [compound 121], the IC50 is 100 to 1000 nM. In the case of `Cc1ccc2nnc(Cc3ccc4ncc(-n5cccn5)cc4c3)n2n1` [compound 127], the IC50 lay within 100 to 1000 nM. The value for `Cc1ccc2nnc(Cc3ccc4ncc(-c5c[nH]nc5C)cc4c3)n2n1` [compound 150] was 100 to 1000 nM.

For `Cc1ccc2nnc(Cn3ccc4ncc(-c5cnn(C)c5)cc43)n2n1` [compound 178], the IC50 lay in the range of 1000 to 10000 nM.

`Cc1ccc2nnc(Cc3ccc4ncc(-c5cnn(C6CN(C)C6)c5)cc4c3)n2n1` [compound 183] gave an IC50 of under 100 nM. For `CCc1ccc2nnc(Cc3ccc4ncc(-c5cnn(C6CNC6)c5)cc4c3F)n2n1` [compound 184] the value was under 100 nM. The value for `CCc1ccc2nnc(Cc3c(F)cc4ncc(-c5cnn(C6CNC6)c5)cc4c3F)n2n1` [compound 185] was under 100 nM; that for `CCc1ccc2nnc(Cc3ccc4ncc(-c5cnn(C6CN(CC)C6)c5)cc4c3F)n2n1` [compound 186] was under 100 nM; that for `CCc1ccc2nnc(Cc3c(F)cc4ncc(-c5cnn(C6CN(CC)C6)c5)cc4c3F)n2n1` [compound 187] was under 100 nM.

`CCN1CC(n2cc(-c3cnc4cc(F)c(Cc5nnc6ccc(C)nn56)c(F)c4c3)cn2)C1` [compound 188] displayed an IC50 of under 100 nM. For `CCc1ccc2nnc(Cc3ccc4ncc(-c5cnn(C6CNC6)c5)cc4c3)n2n1` [compound 189] the value was under 100 nM.
